From patent US20140357487A1, “PLANTS HAVING INCREASED TOLERANCE TO HERBICIDES” (BASF SE, priority 2011, published 2014)

Tests used:
[1] = system: Avena HPPD; experiment: HPPD activity assay, Avena HPPD; format: biochemical, Avena sativa; conditions: normalized on Arabidopsis wild-type HPPD
Description: (§1) HPPD produces homogentisic acid and CO2 from 4-hydroxyphenylpyruvate (4-HPP) and O2. The activity assay for HPPD is based on the analysis of homogentisic acid by reversed phase HPLC.
(§2) The assay mixture can contain 150 mM potassium phosphate buffer pH 7.0, 50 mM L-ascorbic acid, 1 μM FeSO4 and 7 μg of purified enzyme in a total volume of 1 ml.
(§3) Inhibitors are dissolved in DMSO (dimethylsulfoxide) to a concentration of 20 mM or 0.5 mM, respectively. From this stock solution serial five-fold dilutions are prepared in DMSO, which are used in the assay. The respective inhibitor solution accounts for 1% of the assay volume. Thus, final inhibitor concentrations range from 200 μM to 2.5 nM or from 5 μM to 63 pM, respectively. After a preincubation of 30 min the reaction is started by adding 4-HPP to a final concentration of 0.1 mM. The reaction is allowed to proceed for 120 min at room temperature. The reaction is stopped by addition of 100 μl of 4.5 M phosphoric acid.
(§4) Activities are normalized by setting the uninhibited enzyme activity to 100%. IC50 values are calculated using non-linear regression.
(§5) The assay mixture can contain 150 mM potassium phosphate buffer pH 7.0, 50 mM L-ascorbic acid, 100 μM Catalase (Sigma-Aldrich), 1 μM FeSO4 and 0.2 units of purified HPPD enzyme in a total volume of 505 μl. 1 unit is defined as the amount of enzyme that is required to produce 1 nmol of HGA per minute at 20° C.
Inhibitors are dissolved in DMSO (dimethylsulfoxide) to a concentration of 0.5 mM. From this stock solution serial five-fold dilutions are prepared in DMSO, which are used in the assay. The respective inhibitor solution accounts for 1% of the assay volume. Thus, final inhibitor concentrations range from 5 μM to 320 pM, respectively. Activities are normalized by setting the uninhibited enzyme activity to 100%. IC50 values are calculated using non-linear regression.
(§6) Using methods which are described in the above examples or well known in the art, purified, recombinant wildtype HPPD enzymes are characterized with respect to their kinetic properties and sensitivity towards HPPD inhibiting herbicides. Apparent michaelis constants (Km) and maximal reaction velocities (Vmax) are calculated by non-linear regression with the software GraphPad Prism 5 (GraphPad Software, La Jolla, USA) using a substrate inhibition model. […] Weighted means (by standard error) of Km and […] values are calculated from at least three independent experiments. […]
(§7) Field performance of the HPPD enzyme, which is used as a herbicide tolerance trait, may depend not only on its lack of sensitivity towards HPPD inhibiting herbicides but also on its activity. To assess the potential performance of a herbicide tolerance trait a tolerance index (TI) is calculated using the following formula: […]

[2] = system: Picrophilus HPPD; experiment: HPPD activity assay, Picrophilus HPPD; format: biochemical; conditions: normalized on Arabidopsis wild-type HPPD
Description: as §1, §2, §3, §4
The assay mixture can contain 150 mM potassium phosphate buffer pH 7.0, 50 mM L-ascorbic acid, 100 μM Catalase (Sigma-Aldrich), 1 μM FeSO4 and 0.2 units of purified HPPD enzyme in a total volume of 505 μl. […]
Inhibitors are dissolved in DMSO (dimethylsulfoxide) to a concentration of 0.5 mM. […] IC50 values are calculated using non-linear regression.
as §6

[3] = molecular target: T1, Hordeum HPPD (SEQ ID: 2) (Hordeum vulgare, UniProt O48604, A164G/R146V/R147D/R148G); experiment: HPPD activity assay, Hordeum wild-type HPPD; format: biochemical; conditions: for tolerance index TI: not normalized
T1 construct: His (N); made in house; host or cells: E. coli BL21 (DE3)
T1 sequence (O48604 whole entry R146V/R147D/R148G/A164G): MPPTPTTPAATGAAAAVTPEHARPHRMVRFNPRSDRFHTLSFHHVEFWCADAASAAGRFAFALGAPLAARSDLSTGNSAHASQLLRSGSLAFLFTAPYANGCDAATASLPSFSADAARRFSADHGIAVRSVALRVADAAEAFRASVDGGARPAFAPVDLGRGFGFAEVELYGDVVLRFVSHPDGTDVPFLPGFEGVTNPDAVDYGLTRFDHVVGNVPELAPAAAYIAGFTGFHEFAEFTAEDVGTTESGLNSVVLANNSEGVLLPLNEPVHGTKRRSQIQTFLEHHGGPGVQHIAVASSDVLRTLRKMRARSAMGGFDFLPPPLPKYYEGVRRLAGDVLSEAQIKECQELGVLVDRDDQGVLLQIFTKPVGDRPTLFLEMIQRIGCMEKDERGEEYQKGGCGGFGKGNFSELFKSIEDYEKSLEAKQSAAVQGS
Description: as §1, §2
(§8) Inhibitors are dissolved in DMSO (dimethylsulfoxide) to a concentration of 20 mM or 0.5 mM, respectively. From this stock solution serial five-fold dilutions are prepared in DMSO, which are used in the assay. The respective inhibitor solution accounts for 1% of the assay volume. […] After a preincubation of 30 min the reaction is started by adding 4-HPP to a final concentration of 0.1 mM. The reaction is allowed to proceed for 120 min at room temperature. The reaction is stopped by addition of 100 μl of 4.5 M phosphoric acid.
as §4, §5
(§9) Inhibitors are dissolved in DMSO (dimethylsulfoxide) to a concentration of 0.5 mM. From this stock solution serial five-fold dilutions are prepared in DMSO, which are used in the assay. The respective inhibitor solution accounts for 1% of the assay volume. […] Activities are normalized by setting the uninhibited enzyme activity to 100%. IC50 values are calculated using non-linear regression.
Using methods which are described in the above examples or well known in the art, purified, recombinant wildtype HPPD enzymes are characterized with respect to their kinetic properties and sensitivity towards HPPD inhibiting herbicides. Apparent michaelis constants (Km) and maximal reaction velocities (Vmax) are calculated by non-linear regression with the software GraphPad Prism 5 (GraphPad Software, La Jolla, USA) using a substrate inhibition model.
as §7

[4] = molecular target: T2, Hordeum HPPD variant L353M, P321R, V212I, L334E (Hordeum vulgare, UniProt O48604, L334E/L353M/P321R/V212I); experiment: HPPD activity assay, Hordeum HPPD mutant L353M, P321R, V212I, L334E; format: biochemical; conditions: normalized on Hordeum wild-type HPPD
T2 construct: His (N); made in house; host or cells: E. coli BL21 (DE3)
T2 sequence (O48604 whole entry R146V/R147D/R148G/A164G/V212I/P321R/L334E/L353M): as the sequence (O48604 whole entry R146V/R147D/R148G/A164G) above, with V212I, P321R, L334E, L353M counted along it
Description: as §1, §2, §8, §4, §5, §9
(§10) Purified, mutant HPPD enzymes are obtained by the methods described above. Dose response and kinetic measurements are carried out using the described HPPD activity assay. Apparent michaelis constants (Km) and maximal reaction velocities (Vmax) are calculated by non-linear regression with the software GraphPad Prism 5 (GraphPad Software, La Jolla, USA) using a substrate inhibition model.
(§11) Field performance of the optimized HPPD enzyme, which is used as a herbicide tolerance trait may depend not only on its lack of sensitivity towards HPPD inhibiting herbicides but also on its activity. To assess the potential performance of a herbicide tolerance trait a tolerance index (TI) is calculated using the following formula: […]
(§12) Easy comparison and ranking of each trait is enabled by normalizing tolerance indexes on Arabidopsis or Hordeum wild-type HPPD.

[5] = molecular target: T3, Hordeum HPPD variant L320N (Hordeum vulgare, UniProt O48604, A164G/L320N/R146V/R147D/R148G); experiment: HPPD activity assay, Hordeum HPPD mutant L320N; format: biochemical; conditions: normalized on Hordeum wild-type HPPD
T3 construct: His (N); made in house; host or cells: E. coli BL21 (DE3)
T3 sequence (O48604 whole entry R146V/R147D/R148G/A164G/L320N): as the sequence (O48604 whole entry R146V/R147D/R148G/A164G) above, with L320N counted along it
Description: as §1, §2, §8, §4, §5, §9, §10, §11, §12

[6] = molecular target: T4, Hordeum HPPD variant L334E (Hordeum vulgare, UniProt O48604, A164G/L334E/R146V/R147D/R148G); experiment: HPPD activity assay, Hordeum HPPD mutant L334E; format: biochemical; conditions: normalized on Hordeum wild-type HPPD
T4 construct: His (N); made in house; host or cells: E. coli BL21 (DE3)
T4 sequence (O48604 whole entry R146V/R147D/R148G/A164G/L334E): as the sequence (O48604 whole entry R146V/R147D/R148G/A164G) above, with L334E counted along it
Description: as §1, §2, §8, §4, §5, §9, §10, §11, §12

[7] = molecular target: T5, Hordeum HPPD variant G407C (Hordeum vulgare, UniProt O48604, A164G/G407C/R146V/R147D/R148G); experiment: HPPD activity assay, Hordeum HPPD mutant G407C; format: biochemical; conditions: normalized on Hordeum wild-type HPPD
T5 construct: His (N); made in house; host or cells: E. coli BL21 (DE3)
T5 sequence (O48604 whole entry R146V/R147D/R148G/A164G/G407C): as the sequence (O48604 whole entry R146V/R147D/R148G/A164G) above, with G407C counted along it
Description: as §1, §2, §8, §4, §5, §9, §10, §11, §12

[8] = molecular target: T6, Hordeum HPPD variant L320H, P321A (Hordeum vulgare, UniProt O48604, L320H/P321A); experiment: HPPD activity assay, Hordeum HPPD mutant L320H, P321A; format: biochemical; conditions: normalized on Hordeum wild-type HPPD
T6 construct: His (N); made in house; host or cells: E. coli BL21 (DE3)
T6 sequence (O48604 whole entry R146V/R147D/R148G/A164G/L320H/P321A): as the sequence (O48604 whole entry R146V/R147D/R148G/A164G) above, with L320H, P321A counted along it
Description: as §1, §2, §8, §4, §5, §9, §10, §11, §12

[9] = molecular target: T7, Hordeum HPPD variant V212L (Hordeum vulgare, UniProt O48604, A164G/R146V/R147D/R148G/V212L); experiment: HPPD activity assay, Hordeum HPPD mutant V212L; format: biochemical; conditions: normalized on Hordeum wild-type HPPD
T7 construct: His (N); made in house; host or cells: E. coli BL21 (DE3)
T7 sequence (O48604 whole entry R146V/R147D/R148G/A164G/V212L): as the sequence (O48604 whole entry R146V/R147D/R148G/A164G) above, with V212L counted along it
Description: as §1, §2, §8, §4, §5, §9, §10, §11, §12

[10] = Hordeum HPPD Wildtype, normalized on Hordeum wild-type HPPD
[11] = Hordeum HPPD, normalized on Arabidopsis wild-type HPPD

Structure (SMILES)	Normalized tolerance index TI [1]	Normalized tolerance index TI [2]	Ki [3] [nM]	Normalized tolerance index TI [3, 10]	Normalized tolerance index TI [3, 11]	tolerance index TI ([3]; Hordeum HPPD)	Normalized tolerance index TI [4]	Normalized tolerance index TI [5]	Normalized tolerance index TI [6]	Normalized tolerance index TI [7]	Normalized tolerance index TI [8]	Normalized tolerance index TI [9]
CC1=NOC(c2c(Cl)ccc(C3=C(O)c4ncccc4C(C)(C)S3(=O)=O)c2Cl)C1 (stereo not shown) [Inhibitor 1, 7-[2,4-dichloro-3-(3-methyl-4,5-dihydroisoxazol-5-yl)phenyl]-5,5-dimethyl-6,6-dioxo-thiopyrano[4,3-b]pyridin-8-ol]	4.7	283	6.6	1	0.7	2.9E−3	2.2	2	1.5	2.7	5.2	0.8
COCCOCc1c(Cl)ccc(C2=C(O)c3ncccc3C(C)(C)S2(=O)=O)c1Cl [Inhibitor 3, 7-[2,4-dichloro-3-(2-methoxyethoxymethyl)phenyl]-5,5-dimethyl-6,6-dioxo-thiopyrano[4,3-b]pyridin-8-ol]	0.1	17.2	–	1	0	–	2.1	1.9	1.5	2.4	4.8	0.7
CC1(C)c2cccnc2C(O)=C(c2ccc(Cl)nc2Cl)S1(=O)=O [Inhibitor 2, 7-(2,6-dichloro-3-pyridyl)-5,5-dimethyl-6,6-dioxo-thiopyrano[4,3-b]pyridin-8-ol]	2.8	86.4	4.9	1	0.5	2.2E−3	1.9	1.7	1.4	2	2.5	1.1
